What all share (type): in vivo
The subject of experiment [1] is radish, wild (wild radish, Raphanus raphanistrum). Nature of the experiment: Test D pre-/postemergence: radish, wild. The source says:
Seeds of plant species selected from bluegrass (annual bluegrass, Poa annua), blackgrass (Alopecurus myosuroides), canarygrass (Phalaris minor), chickweed (common chickweed, Stellaria media), galium (catchweed bedstraw, Galium aparine), bromegrass, downy (downy bromegrass, Bromus tectorum), field poppy (Papaver rhoeas), field violet (Viola arvensis), foxtail, green (green foxtail, Setaria viridis), deadnettle (henbit deadnettle, Lamium amplexicaule), ryegrass, Italian (Italian ryegrass, Lolium multiflorum), kochia (Kochia scoparia), lambsquarters (Chenopodium album), oilseed rape (Brassica napus), pigweed (Amaranthus retroflexus), Russian thistle (Salsola iberica), chamomile (scentless chamomile, Matricaria inodora), speedwell (bird's-eye speedwell, Veronica persica), barley, spring (spring barley, Hordeum vulgare), wheat, spring (spring wheat, Triticum aestivum), buckwheat, wild (wild buckwheat, Polygonum convolvulus), mustard, wild (wild mustard, Sinapis arvensis), oat, wild (wild oat, Avena fatua), radish, wild (wild radish, Raphanus raphanistrum), windgrass (Apera spica-venti), barley, winter (winter barley, Hordeum vulgare), and wheat, winter (winter wheat, Triticum aestivum) were planted into a silt loam soil and treated preemergence with test chemicals formulated in a non-phytotoxic solvent mixture which included a surfactant. At the same time, these same crop and weed species were planted in pots containing the planting medium comprising spaghnum peat moss, vermiculite, wetting agent and starter nutrients and treated with postemergence applications of the test chemicals formulated in the same manner. Plants ranged in height from 2 to 18 cm (1- to 4-leaf stage).
Treated plants and controls were maintained in a controlled growth environment for 14 to 21 days after which time all species were compared to controls and visually evaluated. Plant response ratings, summarized in Table D, are based on a scale of 0 to 100 where 0 is no effect and 100 is complete control. A dash (-) response means no test result.

The test system of experiment [2] is nutsedge, yellow (yellow nutsedge, Cyperus esculentus). Nature of the experiment: Test E pre-/postemergence: nutsedge, yellow. The settings on record: Preemergence, scale 0 to 100. The text has this:
Seeds of plant species selected from corn (Zea mays), soybean (Glycine max), velvetleaf (Abutilon theophrasti), lambsquarters (Chenopodium album), poinsettia, wild (wild poinsettia, Euphorbia heterophylla), pigweed, palmer (palmer pigweed, Amaranthus palmeri), waterhemp (common waterhemp, Amaranthus rudis), smartweed (ladysthumb smartweed, Polygonum persicaria), surinam grass (Brachiaria decumbens), crabgrass, large (large crabgrass, Digitaria sanguinalis), crabgrass, Brazil (Brazilian crabgrass, Digitaria horizontalis), panicum, fall (fall panicum, Panicum dichotomiflorum), foxtail, giant (giant foxtail, Setaria faberii), foxtail, green (green foxtail, Setaria viridis), goosegrass (Eleusine indica), johnsongrass (Sorghum halepense), ragweed (common ragweed, Ambrosia elation), barnyardgrass (Echinochloa crus-galli), sandbur (southern sandbur, Cenchrus echinatus), arrowleaf sida (Sida rhombifolia), ryegrass, Italian (Italian ryegrass, Lolium multiflorum), dayflower, (VA) (Virginia dayflower, Commelina virginica), field bindweed (Convolvulus arvensis), cocklebur (common cocklebur, Xanthium strumarium), morningglory (Ipomoea coccinea), nightshade (eastern black nightshade, Solanum ptycanthum), kochia (Kochia scoparia), nutsedge, yellow (yellow nutsedge, Cyperus esculentus) and beggarticks (hairy beggarticks, Bidens pilosa) were planted into a silt loam soil and treated preemergence with test chemicals formulated in a non-phytotoxic solvent mixture which included a surfactant. At the same time, plants selected from these crop and weed species were planted in pots containing a growing medium comprising spaghnum peat moss, vermiculite, wetting agent and starter nutrients and treated with postemergence applications of some of the test chemicals formulated in the same manner. Plants ranged in height from 2 to 18 cm for postemergence treatments (1- to 4-leaf stage).
(§1) Treated plants and controls were maintained in a greenhouse for 14 to 21 days, after which time all species were compared to controls and visually evaluated. Plant response ratings, summarized in Table E, are based on a scale of 0 to 100 where 0 is no effect and 100 is complete control. A dash (-) response means no test result.

Experiment [3] relates to pigweed, palmer (palmer pigweed, Amaranthus palmeri). Nature of the experiment: Test F pre-/postemergence: pigweed, palmer.
Excerpt: Seeds of plant species selected from corn (Zea mays), soybean (Glycine max), velvetleaf (Abutilon theophrasti), lambsquarters (Chenopodium album), poinsettia, wild (wild poinsettia, Euphorbia heterophylla), pigweed, palmer (palmer pigweed, Amaranthus palmeri), waterhemp (common waterhemp, Amaranthus rudis), surinam grass (Brachiaria decumbens), crabgrass, Brazil (Brazilian crabgrass, Digitaria horizontalis), panicum, fall (fall panicum Panicum dichotomiflorum), crabgrass, large (large crabgrass, Digitaria sanguinalis), foxtail, giant (giant foxtail, Setaria faberii), foxtail, green (green foxtail Setaria viridis), goosegrass (Eleusine indica), ragweed (common ragweed, Ambrosia elatior), barnyardgrass (Echinochloa crus-galli), sandbur (southern sandbur, Cenchrus echinatus), arrowleaf sida (Sida rhombifolia), ryegrass, Italian (Italian ryegrass, Lolium multiflorum), dayflower, VA (Virginia (VA) dayflower, Commelina virginica), field bindweed (Convolvulus arvensis), cocklebur (common cocklebur, Xanthium strumarium), morningglory (Ipomoea coccinea), nightshade (eastern black nightshade, Solanum ptycanthum), kochia (Kochia scoparia), nutsedge, yellow (yellow nutsedge, Cyperus esculentus), johnsongrass (Sorghum halepense), smartweed (ladysthumb smartweed, Polygonum persicaria), and beggarticks (hairy beggarticks, Bidens pilosa), were planted into a silt loam soil and treated preemergence with test chemicals formulated in a non-phytotoxic solvent mixture which included a surfactant. At the same time, plants selected from these crop and weed species and also pigweed (Amaranthus retroflexus), waterhemp_RES1 (ALS/Triazine resistant common waterhemp, Amaranthus rudis) and waterhemp_RES2 (ALS/HPPD resistant common waterhemp, Amaranthus rudis) were planted in pots containing a planting medium comprising spaghnum peat moss, vermiculite, wetting agent and starter nutrients treated with postemergence applications of some of the test chemicals formulated in the same manner. Plants ranged in height from 2 to 18 cm for postemergence treatments (1- to 4-leaf stage).
as §1

Experiment [4] relates to Oilseed Rape. In words: Test C preemergence: oilseed rape. The settings on record: scale 0 (no effect) to 100 (complete control).
Where [5] appears, read: Postemergence, 31 g ai/ha, scale 0 to 100 (0 no effect, 100 complete control).
The mark [6] stands for this setting: Postemergence, 62 g ai/ha, scale 0 to 100 (0 no effect, 100 complete control).
Setting [7] is: Postemergence, 125 g ai/ha, scale 0 to 100, 0 no effect, 100 complete control.
Where [8] appears, read: Postemergence, 250 g ai/ha, scale 0 to 100 (0 no effect, 100 complete control).
Where [9] appears, read: Postemergence, 16 g ai/ha, scale 0 to 100.
The mark [10] stands for this setting: Postemergence, 8 g ai/ha, scale 0 to 100.
Setting [11] is: Postemergence, 62 g ai/ha, scale 0 to 100.
Where [12] appears, read: Preemergence, 16 g ai/ha, scale 0 to 100 (0 no effect, 100 complete control).
[13] abbreviates: Preemergence, 31 g ai/ha, scale 0 to 100 (0 no effect, 100 complete control).
Setting [14] is: Preemergence, 62 g ai/ha, scale 0 to 100.
[15] abbreviates: Preemergence, 125 g ai/ha, scale 0 to 100.
Setting [16] is: Preemergence, 250 g ai/ha, scale 0 to 100.

This note sets out measurements from patent US9302999B2, “Substituted triazoles as herbicides” (E. I. DU PONT DE NEMOURS AND COMPANY, priority 2012, dated 2016).

Take `Cc1nn(-c2ccnc(C(F)(F)F)c2)nc1Cc1ccnc(C(F)(F)F)c1` [Compound 137]: the “Plant response rating: Radish, Wild” value in experiment [1] (setting [5]) came to 40; in experiment [1] (setting [6]) it was 90; in experiment [1] (setting [7]), 100; in experiment [1] (setting [8]), 100. Further, the “Plant response rating, Radish, Wild” value in experiment [1] (setting [9]) was 40.

As to `Cc1nn(-c2ccc(F)cc2)nc1Cc1ccnc(C(F)(F)F)c1` [Compound 16, 4-[[2-(4-fluorophenyl)-5-methyl-2H-1,2,3-triazol-4-yl]methyl]-2-(trifluoromethyl)pyridine], the “Plant response rating: Nutsedge, Yellow” value in experiment [2] (8 g ai/ha) turned out to be 0; in experiment [2] (16 g ai/ha), 0; in experiment [2] (31 g ai/ha), 0; in experiment [2] (62 g ai/ha), 20; in experiment [2] (125 g ai/ha), 20. In addition, the “Plant response rating: Radish, Wild” value in experiment [1] (setting [5]), in experiment [1] (setting [6]), in experiment [1] (setting [7]) and in experiment [1] (setting [8]) was 100 throughout. Moreover, the “Plant response rating, Radish, Wild” value in experiment [1] (setting [9]) turned out to be 90.

Take `Cc1nn(-c2ccc(C(F)(F)F)c(F)c2)nc1Cc1ccnc(C(F)(F)F)c1` [Compound 162]: the “Plant response rating, Pigweed, Palmer” value in experiment [3] (Postemergence, 4 g ai/ha, scale 0 to 100) is listed as 70; in experiment [3] (setting [10]), 70; in experiment [3] (setting [9]), 80; in experiment [3] (Postemergence, 31 g ai/ha, scale 0 to 100) it was 90; in experiment [3] (setting [11]), 90; in experiment [3] (Preemergence, 4 g ai/ha, scale 0 to 100, 0 no effect, 100 complete control), 0. In addition, the “Plant response rating, Pigweed, Palmer” value in experiment [3] (Preemergence, 8 g ai/ha, scale 0 to 100, 0 no effect, 100 complete control) turned out to be 25; in experiment [3] (setting [12]), 98; in experiment [3] (setting [13]), 100.

As for `CCOc1nn(-c2ccc(Br)cc2)nc1Cc1ccnc(C(F)(F)F)c1` [Compound 189], the “Plant response rating, Oilseed Rape” value in experiment [4] (16 g ai/ha) amounted to 5.

Consider `CCc1nn(-c2ccc(F)cc2)nc1Oc1ccnc(C(F)(F)F)c1` [Compound 166], for which the “Plant response rating, Oilseed Rape” value in experiment [4] (31 g ai/ha) came to 50.

Consider `Cc1nn(-c2ccc(F)cc2)nc1Oc1ccnc(C(F)(F)F)c1` [Compound 129, 4-[[2-(4-fluorophenyl)-5-methyl-2H-1,2,3-triazol-4-yl]oxy]-2-(trifluoromethyl)pyridine], for which the “Plant response rating: Nutsedge, Yellow” value in experiment [2] (8 g ai/ha) came out at 0; in experiment [2] (16 g ai/ha), 0; in experiment [2] (31 g ai/ha), 0; in experiment [2] (62 g ai/ha), 0; in experiment [2] (125 g ai/ha), 20. Also, the “Plant response rating: Radish, Wild” value was found to be 90 in experiment [1] (setting [5]), 100 in experiment [1] (setting [6]), 100 in experiment [1] (setting [7]) and 100 in experiment [1] (setting [8]). Also, the “Plant response rating, Radish, Wild” value was determined as 90 in experiment [1] (setting [9]); 0 in experiment [1] (setting [12]); 0 in experiment [1] (setting [13]); 10 in experiment [1] (setting [14]); 100 in experiment [1] (setting [15]); 100 in experiment [1] (setting [16]).

For `CCCc1nn(-c2ccc(C(F)(F)F)c(F)c2)nc1Oc1ccnc(C(F)(F)F)c1` [Compound 185], the “Plant response rating, Oilseed Rape” value in experiment [4] (31 g ai/ha) was determined as 60.

For the compound `Cc1nn(-c2ccc(C(F)(F)F)cc2)nc1Cc1ccnc(C(F)(F)F)c1` [Compound 47, 4-[[5-methyl-2-[4-(trifluoromethyl)phenyl]-2H-1,2,3-triazol-4-yl]methyl]-2-(trifluoromethyl)pyridine], the “Plant response rating: Nutsedge, Yellow” value in experiment [2] (16 g ai/ha) is given as 0; in experiment [2] (31 g ai/ha), 0; in experiment [2] (62 g ai/ha) it was 10; in experiment [2] (125 g ai/ha) it was 10; in experiment [2] (250 g ai/ha), 35.

`Cc1nn(-c2ccc(F)c(F)c2)nc1Oc1ccnc(C(F)(F)F)c1` [Compound 145]: the “Plant response rating, Pigweed, Palmer” value was found to be 40 in experiment [3] (setting [10]); 70 in experiment [3] (setting [9]); 85 in experiment [3] (setting [11]); 90 in experiment [3] (Postemergence, 125 g ai/ha, scale 0 to 100).

Turning to `CCCc1nn(-c2ccc(F)cc2)nc1Cc1ccnc(C(F)(F)F)c1` [Compound 153], the “Plant response rating, Pigweed, Palmer” value worked out at 98 in experiment [3] (setting [12]), 100 in experiment [3] (setting [13]), 100 in experiment [3] (setting [15]) and 100 in experiment [3] (setting [16]).

In the case of `Cc1nn(-c2ccc(F)c(C(F)(F)F)c2)nc1Oc1ccnc(C(F)(F)F)c1` [Compound 147], the “Plant response rating: Radish, Wild” value is listed as 100 in experiment [1] (setting [5]), 95 in experiment [1] (setting [6]) and 100 in experiment [1] (setting [7]). Also, the “Plant response rating, Radish, Wild” value was determined as 85 in experiment [1] (setting [9]), 10 in experiment [1] (setting [13]), 100 in experiment [1] (setting [14]) and 100 in experiment [1] (setting [15]).
